# Laboratory results reported in publication PMC8881610 (Nature Communications, 2022).
# Experiments:
# GCGR = GCGR (Homo sapiens, UniProt P47871); assay: Whole-cell binding assay, competition with 125I-GCG; parameters: V5 (C); 6×His (C); expressed in transfected cells; host or cells: CHO-K1; details: Fig. 7c receptor binding profile, n = 3 in duplicate
# Description: (§1) Human embryonic kidney 293 cells containing SV40 large T-antigen (HEK293T) were cultured in DMEM (Gibco) supplemented with 10% (v/v) fetal bovine serum (FBS, Gibco), 1 mM sodium pyruvate (Gibco) and 100 units/mL penicillin and 100 μg/mL streptomycin at 37 °C in 5% CO2. Chinese hamster ovary (CHO-K1) cells were cultured in F-12 (Gibco) containing 10% FBS, 100 units/mL penicillin and 100 μg/mL streptomycin at 37 °C in 5% CO2. For cAMP and receptor expression assays, HEK293T cells were seeded into 6-well cell culture plates at a density of 7 × 10^5 cells per well. After overnight incubation, cells were transfected with GIPR, GLP-1R or GCGR construct using Lipofectamine 2000 or Lipofectamine 3000 transfection reagent (Invitrogen). For whole-cell binding assay, CHO-K1 cells were seeded into 96-well fibronectin-treated cell culture plates at a density of 3 × 10^4 cells per well. After overnight incubation, cells were transfected with GIPR, GLP-1R or GCGR construct using Lipofectamine 2000 transfection reagent (Invitrogen). Following 24 h culturing, the transfected cells were ready for use.
# For GLP-1R and GCGR, CHO-K1 cells (30,000 cells/well) were seeded into Isoplate-96 plates and incubated for 24 h at 37 °C in 5% CO2. The WT or mutant constructs were transiently transfected using Lipofectamine 2000 transfection reagent as previous described. They were then washed twice using F-12 with 0.1% BSA or 0.1% casein, 33 mM HEPES, and incubated for 2 h at 37 °C. […] Cells were washed three times with ice-cold PBS and lysed in PBS with 1% Triton X-100, 20 mM Tris-HCl. After addition of scintillation cocktail (PerkinElmer), radioactivity (CPM) was counted on a MicroBeta^2 microplate counter (PerkinElmer). Data were normalized to the WT response and analyzed using three-parameter logistic equation.
# GIPR = target: T1, GIPR (Homo sapiens, UniProt P48546); assay: Whole-cell binding assay, competition with 125I-GIP1-42; parameters: acylated tirzepatide to the full-length or modified; Flag; expressed in transfected cells; details: Fig. 7c receptor binding profile, n = 3 in duplicate
# T1 sequence (P48546 22-466): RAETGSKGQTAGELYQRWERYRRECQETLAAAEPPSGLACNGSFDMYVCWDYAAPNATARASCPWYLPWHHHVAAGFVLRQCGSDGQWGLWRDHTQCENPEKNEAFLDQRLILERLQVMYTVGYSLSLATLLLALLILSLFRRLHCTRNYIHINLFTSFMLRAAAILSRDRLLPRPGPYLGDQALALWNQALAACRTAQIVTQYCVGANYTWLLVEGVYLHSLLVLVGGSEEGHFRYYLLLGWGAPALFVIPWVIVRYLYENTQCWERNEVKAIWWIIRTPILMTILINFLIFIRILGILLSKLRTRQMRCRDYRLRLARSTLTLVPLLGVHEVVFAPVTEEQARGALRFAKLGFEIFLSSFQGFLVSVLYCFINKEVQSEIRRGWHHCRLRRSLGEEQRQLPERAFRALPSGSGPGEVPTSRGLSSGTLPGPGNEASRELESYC
# Description: as §1
# For GIPR, CHO-K1 cells were cultured in F-12 medium with 10% FBS and seeded at a density of 30,000 cells/well in Isoplate-96 plates (PerkinElmer). The WT or mutant GIPR was transiently transfected using Lipofectamine 2000 transfection reagent as previous described. They were then washed twice using F-12 with 0.1% BSA or 0.1% casein, 33 mM HEPES, and incubated for 2 h at 37 °C. […] Following incubation, cells were washed three times with ice-cold PBS and lysed by addition of 50 μL lysis buffer (PBS supplemented with 20 mM Tris-HCl, 1% Triton X-100, pH 7.4). Fifty µL of scintillation cocktail (OptiPhase SuperMix, PerkinElmer) were added and the plates were subsequently counted for radioactivity (counts per minute, CPM) in a MicroBeta^2 microplate counter (PerkinElmer).
# [1] = clinical trial outcome; Drugs@FDA, ChemBL, ClinicalTrials.gov; cited from earlier work
# GLP-1R = GLP-1R (Homo sapiens, UniProt P43220); assay: cAMP accumulation assay, GLP-1R WT, mutant or modified constructs; type: cell-based; parameters: Flag; expressed in transfected cells; host or cells: HEK293T; details: GLP-1R; HEK293T, n = 4; SEM
# Chain of GLP-1R (P43220 24-463): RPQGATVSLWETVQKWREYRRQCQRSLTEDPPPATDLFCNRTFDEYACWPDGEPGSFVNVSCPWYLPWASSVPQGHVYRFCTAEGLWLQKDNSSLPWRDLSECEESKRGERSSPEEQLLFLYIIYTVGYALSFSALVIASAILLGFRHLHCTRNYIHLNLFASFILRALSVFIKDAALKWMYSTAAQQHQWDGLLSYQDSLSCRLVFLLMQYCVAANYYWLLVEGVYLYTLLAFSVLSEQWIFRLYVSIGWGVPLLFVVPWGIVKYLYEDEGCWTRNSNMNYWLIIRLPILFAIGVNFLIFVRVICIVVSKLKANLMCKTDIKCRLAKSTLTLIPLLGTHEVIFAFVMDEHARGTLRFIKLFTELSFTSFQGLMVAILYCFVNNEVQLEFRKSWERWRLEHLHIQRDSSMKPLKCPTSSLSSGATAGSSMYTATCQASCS
# Description: as §1
# The human GLP-1R was modified with its native signal sequence (M1-P23) replaced by the HA signal peptide to facilitate receptor expression. To obtain a GLP-1R–Gs complex with good homogeneity and stability, we used the NanoBiT tethering strategy, in which the C terminus of GLP-1R was directly attached to LgBiT subunit followed by a TEV protease cleavage site and a double MBP tag. […] The constructs were cloned into both pcDNA3.1 and pFastBac vectors for functional assays in mammalian cells and protein expression in insect cells, respectively. Other constructs including the full-length and various mutants of human GLP-1R were cloned into pcDNA3.1 vector for cAMP accumulation and whole-cell binding assays.
# For GIPR, GLP-1R and GCGR, multi-targeting agonist stimulated cAMP accumulation was measured by a LANCE Ultra cAMP kit (PerkinElmer). After 24 h culture, the transfected cells were seeded into 384-well microtiter plates at a density of 3,000 cells per well in HBSS supplemented with 5 mM HEPES, 0.1% (w/v) BSA or 0.1% (w/v) casein and 0.5 mM 3-isobutyl-1-methylxanthine. The cells were stimulated with different concentrations of peptide agonists for 40 min at RT. Eu-cAMP tracer and ULight^TM-anti-cAMP were then diluted by cAMP detection buffer and added to the plates separately to terminate the reaction. Plates were incubated at RT for 1 h and the fluorescence intensity measured at 620 nm and […] by an EnVision multilabel plate reader (PerkinElmer).
# Chain of GCGR (P47871 26-477): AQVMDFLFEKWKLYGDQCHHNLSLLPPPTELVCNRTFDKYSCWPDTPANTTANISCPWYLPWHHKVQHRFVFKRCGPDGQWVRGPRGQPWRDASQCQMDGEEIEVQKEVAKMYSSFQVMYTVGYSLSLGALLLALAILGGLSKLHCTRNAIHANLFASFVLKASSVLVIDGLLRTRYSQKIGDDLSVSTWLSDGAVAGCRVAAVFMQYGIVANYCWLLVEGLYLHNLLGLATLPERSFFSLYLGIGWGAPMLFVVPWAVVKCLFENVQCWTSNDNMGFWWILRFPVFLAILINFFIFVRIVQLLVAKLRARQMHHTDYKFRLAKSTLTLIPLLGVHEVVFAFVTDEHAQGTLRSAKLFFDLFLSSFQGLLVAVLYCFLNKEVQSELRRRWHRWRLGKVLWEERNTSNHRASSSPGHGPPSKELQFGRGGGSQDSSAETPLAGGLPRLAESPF
Compound,GCGR (pIC50 ± S.E.M.) (GCGR),GIPR (pIC50 ± S.E.M.) (GIPR),cAMP Emax ± S.E.M. (GLP-1R),cAMP pEC50 ± S.E.M. (GLP-1R),Body weight [1],Fasting plasma glucose [1] [mg/dL],HAb1c [1] [%]
Dulaglutide: approved GLP-1R mono-agonist,–,–,–,–,-0.20 kg or %,-34.20,-1.45
Exenatide: approved GLP-1R mono-agonist,–,–,–,–,-0.65 kg or %,-34.20,-1.21

# More lines, main results first:
GCGR (pIC50 ± S.E.M.) (GCGR),GIPR (pIC50 ± S.E.M.) (GIPR),cAMP Emax ± S.E.M. (GLP-1R),cAMP pEC50 ± S.E.M. (GLP-1R),Compound,Body weight [1],Fasting plasma glucose [1] [mg/dL],HAb1c [1] [%]
N.B.,–,–,–,"CC[C@H](C)[C@H](NC(=O)[C@H](CO)NC(=O)[C@H](Cc1ccc(O)cc1)NC(=O)[C@H](CC(=O)O)NC(=O)[C@H](CO)NC(=O)[C@@H](NC(=O)[C@H](Cc1ccccc1)NC(=O)[C@@H](NC(=O)CNC(=O)[C@H](CCC(=O)O)NC(=O)[C@H](C)NC(=O)[C@@H](N)Cc1ccc(O)cc1)[C@@H](C)O)[C@@H](C)CC)C(=O)N[C@@H](C)C(=O)N[C@@H](CCSC)C(=O)N[C@@H](CC(=O)O)C(=O)N[C@@H](CCCCN)C(=O)N[C@H](C(=O)N[C@@H](Cc1c[nH]cn1)C(=O)N[C@@H](CCC(N)=O)C(=O)N[C@@H](CCC(N)=O)C(=O)N[C@@H](CC(=O)O)C(=O)N[C@@H](Cc1ccccc1)C(=O)N[C@H](C(=O)N[C@@H](CC(N)=O)C(=O)N[C@@H](Cc1c[nH]c2ccccc12)C(=O)N[C@@H](CC(C)C)C(=O)N[C@@H](CC(C)C)C(=O)N[C@@H](C)C(=O)N[C@@H](CCC(N)=O)C(=O)N[C@@H](CCCCN)C(=O)NCC(=O)N[C@@H](CCCCN)C(=O)N[C@@H](CCCCN)C(=O)N[C@@H](CC(N)=O)C(=O)N[C@@H](CC(=O)O)C(=O)N[C@@H](Cc1c[nH]c2ccccc12)C(=O)N[C@@H](CCCCN)C(=O)N[C@@H](Cc1c[nH]cn1)C(=O)N[C@@H](CC(N)=O)C(=O)N[C@H](C(=O)N[C@H](C(=O)N[C@@H](CCC(N)=O)C(=O)O)[C@@H](C)O)[C@@H](C)CC)C(C)C)[C@@H](C)CC [GIP1-42, glucose-dependent insulinotropic polypeptide]",–,–,–
N.B.,N.B.,–,–,CCCCCCCCCCCCCCCC(=O)N[C@@H](CCC(=O)NCCCC[C@H](NC(=O)[C@H](C)NC(=O)[C@H](C)NC(=O)[C@H](CCC(N)=O)NC(=O)CNC(=O)[C@H](CCC(=O)O)NC(=O)[C@H](CC(C)C)NC(=O)[C@H](Cc1ccc(O)cc1)NC(=O)[C@H](CO)NC(=O)[C@H](CO)NC(=O)[C@@H](NC(=O)[C@H](CC(=O)O)NC(=O)[C@H](CO)NC(=O)[C@@H](NC(=O)[C@H](Cc1ccccc1)NC(=O)[C@@H](NC(=O)CNC(=O)[C@H](CCC(=O)O)NC(=O)[C@H](C)NC(=O)[C@@H](N)Cc1c[nH]cn1)[C@@H](C)O)[C@@H](C)O)C(C)C)C(=O)N[C@@H](CCC(=O)O)C(=O)N[C@@H](Cc1ccccc1)C(=O)N[C@H](C(=O)N[C@@H](C)C(=O)N[C@@H](Cc1c[nH]c2ccccc12)C(=O)N[C@@H](CC(C)C)C(=O)N[C@H](C(=O)N[C@@H](CCCNC(=N)N)C(=O)NCC(=O)N[C@@H](CCCNC(=N)N)C(=O)NCC(=O)O)C(C)C)[C@@H](C)CC)C(=O)O [Liraglutide],–,–,–
N.B.,N.B.,100.13 ± 1.66 % max GLP-1(7-36)NH2,11.02 ± 0.05,"Albiglutide: approved GLP-1 analog, GLP-1R mono-agonist",-0.04 kg or %,-30.00,-1.3
